As usually defined, the IC50 is the concentration at which inhibition is half-maximal.

Molecules are shown by their SMILES.

Holding throughout (type): cell-based
In one assay the test system is NCI—H441 cells. As to the kind of experiment: In vitro cell proliferation experiment (5 days), H441. The settings on record: H441, 5 days; read-out: Inhibitory Activity IC50. The procedure:
(§1) RPMI 1640 medium, DMEM, Ham's F12 medium, F12K medium, IMDM and penicillin/streptomycin antibiotics were purchased from Gibco, fetal bovine serum was purchased from Hyclone, Envision multilabel plate reader (PerkinElmer). […]
(§2) The test compound was diluted by 5-fold to 8 concentrations with a pipette, i.e., from 2 mM to 25.6 nM, and replicate wells were set up for the experiment. […] Another cell plate was prepared, and the signal value was read as the maximum value (the maximum value in the following equation) on the day of dosing for data analysis.
(§3) 50 μL of cell viability chemiluminescent detection reagent was added to the cell plate and incubated at room temperature for 30 minutes to stabilize the luminescence signal. A multilabel plate reader was used for reading. […]

In a further assay the test system is AsPC-1 cells. As to the kind of experiment: In vitro AsPC-1 cell proliferation experiment (10 days, 3D CellTiter-Glo). The settings on record: 10 days culture. The procedure: RPMI1640 medium, penicillin/streptomycin antibiotics were purchased from Gibco, and fetal bovine serum was purchased from Hyclone. 3D CellTiter-Glo (cell viability chemiluminescent detection reagent) reagent was purchased from Promega. The AsPC-1 cell line was purchased from ATCC, Envision multilabel plate reader (PerkinElmer).
AsPC-1 cells were seeded in an ultra-low adsorption 96-well U-shaped plate, with 80 μL of cell suspension per well, containing 1,000 AsPC-1 cells. The plate was incubated overnight in a carbon dioxide incubator.
as §2, with “nM” for “nM,”, “experiment. 78 μL of culture medium was added to the intermediate plate, then 2 μL of the gradient diluted compound was transferred into each well of the intermediate plate according to the corresponding position. After mixing well, 20 μL of each well was transferred to the cell plate.” for “experiment.”
100 μL of cell viability chemiluminescent detection reagent was added to the cell plate and incubated at room temperature for 30 minutes to stabilize the luminescence signal. A multilabel plate reader was used for reading. […]
On the technique in general: In ATP-based viability assays light output follows the ATP content of the culture.

Another assay deals with A427 cell line. Kind of assay: In vitro cell proliferation experiment (5 days), A427. Conditions: A427, 5 days; read-out: Inhibitory Activity IC50. The procedure:
as §1, §2, §3

Another assay has as its system PK-59 cell line. As to the kind of experiment: In vitro cell proliferation experiment (5 days), PK-59. The settings on record: PK-59, 5 days; read-out: Inhibitory Activity IC50. The procedure: as §1, §2, §3

On to `CCn1c(-c2cc(N3CCN(C)CC3)cnc2C(C)OC)c2c3cc(ccc31)-c1csc(n1)CC(NC(=O)C1C(C)C1C)C(=O)N1NC(C(=O)OCC(C)(C)C2)C2CC1C2` (single isomer, unassigned) [Compound 6A], for which the IC50 with NCI—H441 cells turned out to be 1.4 nM; in the assay on AsPC-1 cells, 1 nM; with A427 cell line it was 13.3 nM; in the assay with PK-59 cell line, 2.3 nM.
